In patent US12421225B2, “Heteroaromatic amide derivative and medicament containing the same” (KAKEN PHARMACEUTICAL CO., LTD., priority 2018, dated 2025):

Legend:
human Nav1.7 = human Nav1.7 (Homo sapiens (Human), UniProt Q15858); test: Human Nav1.7 inhibitory activity evaluation (automated patch clamp QPatch16X, HEK293A cells stably expressing human Nav1.7 and human Navβ1); format: cell-based; settings: human Nav1.7, automated patch clamp
Summary of the method: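 IC50 calculated from the concentration-response of inward current evoked by the second −10 mV, 50 ms depolarisation, which follows a 15 s conditioning step at roughly 30-40% inactivation and a 100 ms −120 mV interval. Cells: HEK293A expressing human Nav1.7/Navβ1, automated patch clamp, room temperature, 0.1% DMSO final.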

human Nav1.5 = human Nav1.5 (Homo sapiens (Human), UniProt Q14524); test: Human Nav1.5 inhibitory activity evaluation (automated patch clamp QPatch16X, HEK293 cells stably expressing human Nav1.5); format: cell-based; settings: human Nav1.5, automated patch clamp
human Nav1.5, sequence (Q14524 whole entry): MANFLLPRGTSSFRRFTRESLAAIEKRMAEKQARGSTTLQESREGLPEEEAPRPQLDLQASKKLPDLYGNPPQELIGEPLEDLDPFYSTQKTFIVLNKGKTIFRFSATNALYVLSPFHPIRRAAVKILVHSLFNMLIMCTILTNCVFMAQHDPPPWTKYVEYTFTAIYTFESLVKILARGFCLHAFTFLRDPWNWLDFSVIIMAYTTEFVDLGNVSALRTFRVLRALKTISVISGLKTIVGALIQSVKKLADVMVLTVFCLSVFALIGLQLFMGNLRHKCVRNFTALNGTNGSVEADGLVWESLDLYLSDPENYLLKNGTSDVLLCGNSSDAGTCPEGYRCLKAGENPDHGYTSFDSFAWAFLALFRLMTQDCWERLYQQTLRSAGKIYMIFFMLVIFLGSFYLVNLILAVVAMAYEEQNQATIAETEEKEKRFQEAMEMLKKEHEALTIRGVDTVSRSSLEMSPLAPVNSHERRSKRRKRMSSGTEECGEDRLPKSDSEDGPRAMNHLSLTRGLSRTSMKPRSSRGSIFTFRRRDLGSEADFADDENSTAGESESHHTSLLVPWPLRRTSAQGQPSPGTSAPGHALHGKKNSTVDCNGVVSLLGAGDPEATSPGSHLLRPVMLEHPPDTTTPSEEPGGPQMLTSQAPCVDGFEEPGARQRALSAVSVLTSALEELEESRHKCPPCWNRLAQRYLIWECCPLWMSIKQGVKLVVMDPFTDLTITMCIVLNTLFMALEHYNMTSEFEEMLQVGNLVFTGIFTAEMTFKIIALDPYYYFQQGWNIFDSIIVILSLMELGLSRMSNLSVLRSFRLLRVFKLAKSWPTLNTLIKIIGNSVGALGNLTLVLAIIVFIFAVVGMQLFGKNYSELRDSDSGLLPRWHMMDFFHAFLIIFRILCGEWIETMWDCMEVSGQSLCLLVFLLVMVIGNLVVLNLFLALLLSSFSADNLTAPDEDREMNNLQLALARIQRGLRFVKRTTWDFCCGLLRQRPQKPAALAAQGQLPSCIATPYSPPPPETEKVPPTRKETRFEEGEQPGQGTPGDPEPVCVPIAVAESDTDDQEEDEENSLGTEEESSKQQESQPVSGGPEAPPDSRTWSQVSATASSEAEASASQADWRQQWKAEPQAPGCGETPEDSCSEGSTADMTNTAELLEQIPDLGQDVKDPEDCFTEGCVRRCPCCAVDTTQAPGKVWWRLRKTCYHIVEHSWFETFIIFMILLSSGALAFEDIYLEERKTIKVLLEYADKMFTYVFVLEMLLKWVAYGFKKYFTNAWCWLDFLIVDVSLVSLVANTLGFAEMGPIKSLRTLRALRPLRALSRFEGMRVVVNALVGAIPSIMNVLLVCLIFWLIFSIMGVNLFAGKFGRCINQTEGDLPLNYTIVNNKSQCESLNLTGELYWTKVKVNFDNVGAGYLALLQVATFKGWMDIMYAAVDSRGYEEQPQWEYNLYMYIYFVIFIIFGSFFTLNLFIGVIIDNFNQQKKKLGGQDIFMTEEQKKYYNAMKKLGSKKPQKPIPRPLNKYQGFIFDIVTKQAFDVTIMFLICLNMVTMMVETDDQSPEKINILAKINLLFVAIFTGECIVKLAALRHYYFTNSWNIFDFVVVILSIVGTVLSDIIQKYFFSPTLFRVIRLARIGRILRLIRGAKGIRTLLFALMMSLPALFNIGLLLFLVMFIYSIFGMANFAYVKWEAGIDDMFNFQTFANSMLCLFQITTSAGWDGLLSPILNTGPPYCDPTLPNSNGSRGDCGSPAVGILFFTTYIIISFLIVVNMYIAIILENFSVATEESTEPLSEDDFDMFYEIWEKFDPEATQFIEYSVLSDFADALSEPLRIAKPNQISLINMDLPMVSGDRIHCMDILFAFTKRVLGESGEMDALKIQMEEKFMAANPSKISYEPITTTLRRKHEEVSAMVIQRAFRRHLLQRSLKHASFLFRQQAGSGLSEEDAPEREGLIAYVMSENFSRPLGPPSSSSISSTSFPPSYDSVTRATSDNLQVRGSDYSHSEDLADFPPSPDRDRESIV
Procedure: Test Example 2: Human Nav1.5 Inhibitory Activity Evaluation
A cell line in which human Nav1.5 was stably expressed in HEK293 cells was used. DMEM supplemeted with 15% fetal bovine serum, 500 μg/ml geneticin, 100 units/ml penicillin, 100 μg/ml streptomycin, 20 mM HEPES was used as culture medium under the conditions of 37° C. and 5% CO2 in T175 flasks to carry out culturing. When 60-80% confluence was reached, a cell suspension of about 0.5-5.0×10^6 cells/mL was prepared. The amount of current through human Nav1.5 was recorded using a fully automatic patch clamp device QPatch16X at room temperature. As the extracellular solution, 145 mM NaCl, 4 mM KCl, 1 mM MgCl2, 2 mM CaCl2, 10 mM Glucose, and 10 mM HEPES at pH 7.4 was used. As the intracellular solution, 135 mM CsF, ⅕ mM EGTA/CsOH, 10 mM HEPES, and 10 mM NaCl at pH 7.3 was used. The test compounds were dissolved in DMSO and diluted with the extracellular solution to attend the DMSO concentration of 0.1% at the time of assay.
The current response was obtained at a sampling frequency of 25 kHz, and noise was removed with a 3 kHz low-pass filter. The holding potential was −80 mV. Correction of the leakage current was carried out by applying a step pulse of −100 mV before the test pulse. In order to investigate human Nav1.5 inhibitory effect of the test compound, test pulses imitating the action potential of cardiomyocytes were continuously given 20 times. The test pulses were given before and after the test compound addition.
The inhibitory activity of the test compound was determined based on the amount of inward current generated by the 20th depolarization pulse, and the 50% inhibitory concentration (IC50) was calculated from the concentration-response curve.

human Nav1.7, sequence (Q15858 whole entry): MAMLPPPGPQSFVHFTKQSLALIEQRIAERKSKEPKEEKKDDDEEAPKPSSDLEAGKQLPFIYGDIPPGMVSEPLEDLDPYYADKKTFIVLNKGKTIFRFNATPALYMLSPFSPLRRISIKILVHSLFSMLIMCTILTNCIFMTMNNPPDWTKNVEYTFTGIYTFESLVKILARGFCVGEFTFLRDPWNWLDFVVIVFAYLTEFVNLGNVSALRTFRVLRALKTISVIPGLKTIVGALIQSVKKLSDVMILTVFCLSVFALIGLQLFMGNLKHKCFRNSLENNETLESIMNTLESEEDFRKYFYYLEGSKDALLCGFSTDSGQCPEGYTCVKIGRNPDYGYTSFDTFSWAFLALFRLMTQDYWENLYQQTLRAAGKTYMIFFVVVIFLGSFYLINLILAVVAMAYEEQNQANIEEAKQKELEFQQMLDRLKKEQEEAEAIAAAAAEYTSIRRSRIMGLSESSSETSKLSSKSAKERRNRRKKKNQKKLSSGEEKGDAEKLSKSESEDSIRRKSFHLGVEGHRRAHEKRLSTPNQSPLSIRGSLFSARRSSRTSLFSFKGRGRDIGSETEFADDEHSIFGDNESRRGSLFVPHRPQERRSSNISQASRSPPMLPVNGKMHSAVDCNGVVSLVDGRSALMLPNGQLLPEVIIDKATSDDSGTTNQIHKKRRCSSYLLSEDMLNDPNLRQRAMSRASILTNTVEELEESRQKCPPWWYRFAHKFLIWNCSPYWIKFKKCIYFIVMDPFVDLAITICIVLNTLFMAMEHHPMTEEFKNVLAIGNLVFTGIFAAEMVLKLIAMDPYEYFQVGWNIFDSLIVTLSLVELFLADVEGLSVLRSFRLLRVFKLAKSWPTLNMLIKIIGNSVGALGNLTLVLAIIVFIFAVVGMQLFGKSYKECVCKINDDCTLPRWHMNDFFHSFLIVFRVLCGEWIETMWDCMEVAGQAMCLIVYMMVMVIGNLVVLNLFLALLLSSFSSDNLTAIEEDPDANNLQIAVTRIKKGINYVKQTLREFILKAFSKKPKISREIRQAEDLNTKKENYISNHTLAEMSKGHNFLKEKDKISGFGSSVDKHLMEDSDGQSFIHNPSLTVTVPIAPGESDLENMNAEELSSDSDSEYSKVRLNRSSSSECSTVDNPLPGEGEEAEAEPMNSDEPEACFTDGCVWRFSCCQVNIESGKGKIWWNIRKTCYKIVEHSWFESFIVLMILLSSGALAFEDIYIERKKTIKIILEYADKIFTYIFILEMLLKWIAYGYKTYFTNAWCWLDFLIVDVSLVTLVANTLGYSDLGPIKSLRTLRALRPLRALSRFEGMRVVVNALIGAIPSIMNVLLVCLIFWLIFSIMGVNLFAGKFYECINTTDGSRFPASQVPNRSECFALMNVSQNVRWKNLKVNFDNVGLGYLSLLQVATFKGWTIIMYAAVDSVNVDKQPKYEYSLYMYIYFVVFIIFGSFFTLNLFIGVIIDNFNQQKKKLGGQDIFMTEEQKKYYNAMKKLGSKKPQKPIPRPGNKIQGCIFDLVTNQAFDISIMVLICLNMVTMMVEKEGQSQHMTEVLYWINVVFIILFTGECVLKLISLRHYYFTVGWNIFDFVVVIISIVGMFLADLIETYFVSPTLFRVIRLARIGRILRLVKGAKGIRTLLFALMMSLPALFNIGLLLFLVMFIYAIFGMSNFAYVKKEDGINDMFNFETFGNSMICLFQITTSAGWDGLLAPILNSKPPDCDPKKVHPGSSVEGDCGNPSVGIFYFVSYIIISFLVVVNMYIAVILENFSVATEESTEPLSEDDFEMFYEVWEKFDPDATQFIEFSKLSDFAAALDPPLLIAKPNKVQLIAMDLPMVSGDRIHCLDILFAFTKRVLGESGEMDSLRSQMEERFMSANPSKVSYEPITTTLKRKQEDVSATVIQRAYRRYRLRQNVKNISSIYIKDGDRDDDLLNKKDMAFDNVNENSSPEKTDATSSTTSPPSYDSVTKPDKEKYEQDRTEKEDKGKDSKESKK
human Nav1.7, sequence (Q07699 19-218 partner): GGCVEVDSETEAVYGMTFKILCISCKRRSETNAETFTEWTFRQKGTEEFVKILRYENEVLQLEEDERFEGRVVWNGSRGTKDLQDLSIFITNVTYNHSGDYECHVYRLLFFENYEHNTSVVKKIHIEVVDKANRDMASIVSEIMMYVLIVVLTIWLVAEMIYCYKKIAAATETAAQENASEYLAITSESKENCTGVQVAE

Row | SMILES | IC50 (human Nav1.7) | IC50 (human Nav1.5)
1 | O=C(N[C@H]1COc2ccc(COCC(F)(F)F)cc2C1)c1cc2n(n1)CC(COCC1CC1)O2 (single isomer, unassigned) [186 (isomer A)] | < 10 µM | ≥ 3 µM
2 | O=C(N[C@H]1COc2ccc(COCC(F)(F)F)cc2C1)c1cc2n(n1)CC(COC(F)(F)F)O2 (single isomer, unassigned) [196 (isomer B)] | < 1 µM | ≥ 3 µM
3 | O=C(N[C@H]1COc2ccc(CC(F)F)cc2C1)c1cc2n(n1)CC(COC(F)(F)F)O2 (single isomer, unassigned) [198 (isomer B)] | < 1 µM | ≥ 3 µM
4 | N#Cc1ccc2c(c1)C[C@@H](NC(=O)c1cc3n(n1)CC(CSCC(F)(F)F)O3)CO2 (single isomer, unassigned) [200 (isomer A)] | < 10 µM | ≥ 3 µM
5 | N#Cc1ccc2c(c1)C[C@@H](NC(=O)c1cc3n(n1)CC(CSCC(F)(F)F)O3)CO2 (single isomer, unassigned) [200 (isomer B)] | < 1 µM | ≥ 3 µM
6 | N#Cc1ccc2c(c1)C[C@@H](NC(=O)c1cc3n(n1)CC(CCOCC1CC1)O3)CO2 (single isomer, unassigned) [202 (isomer A)] | < 1 µM | ≥ 3 µM
7 | N#Cc1ccc2c(c1)C[C@@H](NC(=O)c1cc3n(n1)CC(CCOCC1CC1)O3)CO2 (single isomer, unassigned) [202 (isomer B)] | < 1 µM | < 1 µM
8 | COc1ncc(-c2ccc3c(c2)C[C@@H](NC(=O)c2cc4n(n2)CC(CCOCC2CC2)O4)CO3)cn1 (single isomer, unassigned) [204 (isomer B)] | < 1 µM | 1 to 3 µM
9 | O=C(N[C@H]1COc2ccc(-c3ccccn3)cc2C1)c1cc2n(n1)CC(CCOCC(F)(F)F)O2 (single isomer, unassigned) [207 (isomer B)] | < 1 µM | 1 to 3 µM
10 | N#Cc1ccc2c(c1)C[C@@H](NC(=O)c1cc3n(n1)CC(CCOC(F)(F)F)O3)CO2 (single isomer, unassigned) [209 (isomer B)] | < 1 µM | < 1 µM
11 | Cn1ccc(-c2ccc3c(c2)C[C@@H](NC(=O)c2cc4n(n2)CC(CCOC(F)(F)F)O4)CO3)n1 (single isomer, unassigned) [213 (isomer A)] | < 1 µM | ≥ 3 µM
12 | O=C(N[C@H]1COc2ccc(COCC(F)(F)F)cc2C1)c1cc2n(n1)CC(CCOC(F)F)O2 (single isomer, unassigned) [215 (isomer A)] | < 1 µM | 1 to 3 µM
13 | O=C(N[C@H]1COc2ccc(CCOC(F)F)cc2C1)c1cc2n(n1)CC(CCOC(F)F)O2 (single isomer, unassigned) [217 (isomer A)] | < 1 µM | 1 to 3 µM
14 | O=C(N[C@H]1COc2ccc(CCOC(F)F)cc2C1)c1cc2n(n1)CC(CCOC(F)F)O2 (single isomer, unassigned) [217 (isomer B)] | < 1 µM | < 1 µM
15 | O=C(N[C@H]1COc2ccc(CC(F)F)cc2C1)c1cc2n(n1)CC(CCOC(F)F)O2 (single isomer, unassigned) [219 (isomer A)] | < 10 µM | ≥ 3 µM
16 | O=C(N[C@H]1COc2ccc(CC(F)F)cc2C1)c1cc2n(n1)CC(CCOC(F)F)O2 (single isomer, unassigned) [219 (isomer B)] | < 1 µM | 1 to 3 µM
17 | Cn1cc(-c2ccc3c(c2)C[C@@H](NC(=O)c2cc4n(n2)CC(CCOC(F)F)O4)CO3)cn1 (single isomer, unassigned) [221 (isomer A)] | < 10 µM | ≥ 3 µM
18 | Cn1cc(-c2ccc3c(c2)C[C@@H](NC(=O)c2cc4n(n2)CC(CCOC(F)F)O4)CO3)cn1 (single isomer, unassigned) [221 (isomer B)] | < 1 µM | 1 to 3 µM
19 | O=C(N[C@H]1COc2ccc(-c3cnccn3)cc2C1)c1cc2n(n1)CC(CCOC(F)F)O2 (single isomer, unassigned) [223 (isomer B)] | < 1 µM | 1 to 3 µM
20 | O=C(N[C@H]1COc2ccc(COCC(F)(F)F)cc2C1)c1cc2n(n1)CC(CCOCC(F)F)O2 (single isomer, unassigned) [224 (isomer A)] | < 1 µM | ≥ 3 µM
21 | O=C(N[C@H]1COc2ccc(COCC(F)(F)F)cc2C1)c1cc2n(n1)CC(CCOCC(F)F)O2 (single isomer, unassigned) [224 (isomer B)] | < 1 µM | 1 to 3 µM
22 | O=C(N[C@H]1COc2ccc(Cl)cc2C1)c1cc2n(n1)CC(CCNCC(F)(F)F)O2 (single isomer, unassigned) [226 (isomer A)] | < 1 µM | ≥ 3 µM
23 | O=C(N[C@H]1COc2ccc(Cl)cc2C1)c1cc2n(n1)CC(CCNCC(F)(F)F)O2 (single isomer, unassigned) [226 (isomer B)] | < 1 µM | 1 to 3 µM

Now from value to compound, other results behind:

Row | IC50 (human Nav1.7) | SMILES | IC50 (human Nav1.5)
24 | < 1 µM | O=C(N[C@H]1COc2ccc(COCC(F)(F)F)cc2C1)c1cc2n(n1)CCC(COC(F)F)O2 (single isomer, unassigned) [140 (isomer B)] | 1 to 3 µM
25 | < 1 µM | O=C(N[C@H]1COc2ccc(CCOC(F)F)cc2C1)c1cc2n(n1)CCC(COC(F)F)O2 (single isomer, unassigned) [142 (isomer A)] | 1 to 3 µM
26 | < 1 µM | O=C(N[C@H]1COc2ccc(CCOC(F)F)cc2C1)c1cc2n(n1)CCC(COC(F)F)O2 (single isomer, unassigned) [142 (isomer B)] | ≥ 3 µM
27 | < 1 µM | N#Cc1ccc2c(c1)C[C@@H](NC(=O)c1cc3n(n1)CCC(CCOC(F)F)O3)CO2 (single isomer, unassigned) [146 (isomer B)] | ≥ 3 µM
28 | < 1 µM | O=C(N[C@H]1COc2ccc(Cl)cc2C1)c1cc2n(n1)CCC(CNCC(F)(F)F)O2 (single isomer, unassigned) [152 (isomer A)] | ≥ 3 µM
29 | < 1 µM | O=C(N[C@H]1COc2ccc(Cl)cc2C1)c1cc2n(n1)CCC(CN1CCC(F)(F)C1)O2 (single isomer, unassigned) [153 (isomer A)] | 1 to 3 µM
30 | < 1 µM | N#Cc1ccc2c(c1)C[C@@H](NC(=O)c1cc3n(n1)CCC(CSC(F)(F)F)O3)CO2 (single isomer, unassigned) [156 (isomer A)] | ≥ 3 µM
31 | < 1 µM | O=C(N[C@H]1COc2ccc(Cl)cc2C1)c1cc2n(n1)CCC(C(F)F)O2 (single isomer, unassigned) [158 (isomer A)] | ≥ 3 µM
32 | < 1 µM | O=C(N[C@H]1COc2ccc(COCC(F)(F)F)cc2C1)c1cc2n(n1)CCC(C(F)F)O2 (single isomer, unassigned) [163 (isomer A)] | 1 to 3 µM
33 | < 1 µM | O=C(N[C@H]1COc2ccc(Cl)cc2C1)c1cc2n(n1)CCC(C(F)(F)F)O2 (single isomer, unassigned) [170 (isomer A)] | 1 to 3 µM
34 | < 1 µM | O=C(N[C@H]1COc2ccc(Cl)cc2C1)c1cc2n(n1)CCC(C(F)(F)F)O2 (single isomer, unassigned) [170 (isomer B)] | < 1 µM
35 | < 1 µM | O=C(N[C@H]1COc2ccc(CC(F)F)cc2C1)c1cc2n(n1)CCC(C(F)(F)F)O2 (single isomer, unassigned) [173 (isomer A)] | ≥ 3 µM
36 | < 1 µM | O=C(N[C@H]1COc2ccc(COCC(F)(F)F)cc2C1)c1cc2n(n1)CC(C(F)(F)F)O2 (single isomer, unassigned) [184 (isomer A)] | 1 to 3 µM
37 | < 1 µM | O=C(N[C@H]1COc2ccc(COCC(F)(F)F)cc2C1)c1cc2n(n1)CC(COCC1CC1)O2 (single isomer, unassigned) [186 (isomer B)] | 1 to 3 µM
38 | < 1 µM | O=C(N[C@H]1COc2ccc(COCC(F)(F)F)cc2C1)c1cc2n(n1)CC(COCC(F)(F)F)O2 (single isomer, unassigned) [188 (isomer A)] | < 1 µM
39 | < 1 µM | O=C(N[C@H]1COc2ccc(COCC(F)(F)F)cc2C1)c1cc2n(n1)CC(COCC(F)(F)F)O2 (single isomer, unassigned) [188 (isomer B)] | ≥ 3 µM
40 | < 1 µM | O=C(N[C@H]1COc2ccc(CCOC(F)F)cc2C1)c1cc2n(n1)CC(COCC(F)(F)F)O2 (single isomer, unassigned) [190 (isomer A)] | ≥ 3 µM
41 | < 1 µM | Cc1cnc(-c2ccc3c(c2)C[C@@H](NC(=O)c2cc4n(n2)CC(COCC(F)(F)F)O4)CO3)cn1 (single isomer, unassigned) [194 (isomer B)] | ≥ 3 µM
42 | < 1 µM | O=C(N[C@H]1COc2ccc(COCC(F)(F)F)cc2C1)c1cc2n(n1)CC(COC(F)(F)F)O2 (single isomer, unassigned) [196 (isomer A)] | 1 to 3 µM
